Measured values reported in ChEMBL document CHEMBL1165922, “Vitamin D receptor agonist/histone deacetylase inhibitor molecular hybrids” (Bioorg Med Chem, 2010).
Each block holds one compound with its values, some of them ahead of it. Active and inactive are the calls of the source. The rule behind the calls is not given here.

Tests used:
Histone deacetylase 3 = Histone deacetylase 3 (Homo sapiens, UniProt O15379); assay: Inhibition of HDAC3 after 10 mins by fluorometric assay
AT84 = assay: Antiproliferative activity against mouse AT84 cells at 100 to 500 nM after 48 hrs by EdU incorporation assay; type: functional, cell-based
[1] = molecular target: T1, Protein deacetylase HDAC6 (Homo sapiens, UniProt Q9UBN7); assay: Inhibition of HDAC6 after 10 mins by fluorometric assay
T1 sequence (Q9UBN7 whole entry): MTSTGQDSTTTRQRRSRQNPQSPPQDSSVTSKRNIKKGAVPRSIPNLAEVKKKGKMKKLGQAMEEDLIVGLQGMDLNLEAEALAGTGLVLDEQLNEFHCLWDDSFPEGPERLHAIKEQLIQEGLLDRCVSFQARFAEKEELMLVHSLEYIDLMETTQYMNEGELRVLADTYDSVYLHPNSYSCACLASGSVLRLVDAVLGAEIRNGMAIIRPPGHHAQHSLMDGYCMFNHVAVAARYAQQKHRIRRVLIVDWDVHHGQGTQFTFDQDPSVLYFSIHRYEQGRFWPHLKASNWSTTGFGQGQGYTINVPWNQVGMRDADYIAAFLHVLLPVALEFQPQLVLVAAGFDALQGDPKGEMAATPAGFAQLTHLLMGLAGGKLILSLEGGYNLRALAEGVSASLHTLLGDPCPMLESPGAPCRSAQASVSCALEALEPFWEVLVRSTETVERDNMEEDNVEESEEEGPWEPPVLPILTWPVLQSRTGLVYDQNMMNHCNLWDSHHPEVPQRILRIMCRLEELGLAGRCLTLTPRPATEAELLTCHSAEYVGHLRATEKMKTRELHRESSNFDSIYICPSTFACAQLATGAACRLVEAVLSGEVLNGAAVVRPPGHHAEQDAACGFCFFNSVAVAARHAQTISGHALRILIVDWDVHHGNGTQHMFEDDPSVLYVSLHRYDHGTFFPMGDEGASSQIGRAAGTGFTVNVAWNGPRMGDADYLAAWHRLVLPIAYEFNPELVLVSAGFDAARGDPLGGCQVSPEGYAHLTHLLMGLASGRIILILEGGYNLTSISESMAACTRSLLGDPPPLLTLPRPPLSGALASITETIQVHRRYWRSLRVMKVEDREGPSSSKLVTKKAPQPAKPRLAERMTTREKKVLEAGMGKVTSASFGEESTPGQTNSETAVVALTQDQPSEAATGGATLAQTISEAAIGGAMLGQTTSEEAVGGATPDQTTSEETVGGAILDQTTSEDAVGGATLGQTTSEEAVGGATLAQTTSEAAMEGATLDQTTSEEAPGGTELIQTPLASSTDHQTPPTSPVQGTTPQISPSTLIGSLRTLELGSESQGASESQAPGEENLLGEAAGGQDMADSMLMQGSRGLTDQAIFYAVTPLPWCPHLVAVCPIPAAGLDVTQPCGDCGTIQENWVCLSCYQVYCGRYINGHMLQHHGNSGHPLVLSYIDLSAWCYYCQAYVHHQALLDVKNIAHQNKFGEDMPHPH

Histone deacetylase 2 = Histone deacetylase 2 (Homo sapiens, UniProt Q92769); assay: Inhibition of HDAC2 after 10 mins by fluorometric assay
Sequence of Histone deacetylase 2 (Q92769 whole entry): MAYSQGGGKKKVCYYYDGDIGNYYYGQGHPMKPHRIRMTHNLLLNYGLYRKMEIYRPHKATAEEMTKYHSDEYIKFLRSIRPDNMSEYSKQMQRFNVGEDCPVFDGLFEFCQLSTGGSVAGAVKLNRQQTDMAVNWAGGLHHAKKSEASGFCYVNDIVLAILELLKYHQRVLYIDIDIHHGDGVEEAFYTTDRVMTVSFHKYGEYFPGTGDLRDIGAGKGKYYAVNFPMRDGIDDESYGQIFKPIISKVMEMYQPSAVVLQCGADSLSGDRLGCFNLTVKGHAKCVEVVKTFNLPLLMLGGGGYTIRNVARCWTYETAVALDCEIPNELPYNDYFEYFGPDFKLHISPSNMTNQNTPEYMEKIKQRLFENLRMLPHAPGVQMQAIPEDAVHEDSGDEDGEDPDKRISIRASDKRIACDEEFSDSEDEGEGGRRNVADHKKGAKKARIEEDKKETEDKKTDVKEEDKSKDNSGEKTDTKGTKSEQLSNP

Mus musculus [2] = assay: Toxicity in FVB mouse assessed as calcium level in blood at 12 pmol/day administered via osmotic pump for 6 to 7 days measured on day 7 by microchemistry (RVb = […] mmol/L); type: organism-based; conditions: in vivo, other
Mus musculus [3] = assay: Toxicity in FVB mouse assessed as calcium level in blood at 12 pmol/day administered via osmotic pump for 6 to 7 days measured on day 3 by microchemistry (RVb = 2.24 mmol/L); type: organism-based; conditions: in vivo, other
Mus musculus [4] = assay: Toxicity in FVB mouse assessed as calcium level in blood at 24 pmol/day administered via osmotic pump for 6 to 7 days measured on day 4 by microchemistry (RVb = 2.11 mmol/L); type: organism-based; conditions: in vivo, other
Mus musculus [5] = assay: Toxicity in FVB mouse assessed as calcium level in blood at 48 pmol/day administered via osmotic pump for 6 to 7 days measured on day 3 by microchemistry (RVb = 2.24 mmol/L); type: organism-based; conditions: in vivo, other
Mus musculus [6] = assay: Toxicity in FVB mouse assessed as calcium level in blood at 24 pmol/day administered via osmotic pump for 6 to 7 days measured on day 7 by microchemistry (RVb = […] mmol/L); type: organism-based; conditions: in vivo, other
Mus musculus [7] = assay: Toxicity in FVB mouse assessed as calcium level in blood at 12 pmol/day administered via osmotic pump for 6 to 7 days measured on day 6 by microchemistry (RVb = 2 mmol/L); type: organism-based; conditions: in vivo, other
Mus musculus [8] = assay: Toxicity in FVB mouse assessed as calcium level in blood at 48 pmol/day administered via osmotic pump for 6 to 7 days measured on day 6 by microchemistry (RVb = 2 mmol/L); type: organism-based; conditions: in vivo, other
Mus musculus [9] = assay: Toxicity in FVB mouse assessed as calcium level in blood at 24 pmol/day administered via osmotic pump for 6 to 7 days measured on day 3 by microchemistry (RVb = 2.24 mmol/L); type: organism-based; conditions: in vivo, other
Mus musculus [10] = assay: Toxicity in FVB mouse assessed as calcium level in blood at 24 pmol/day administered via osmotic pump for 6 to 7 days measured on day 6 by microchemistry (RVb = 2 mmol/L); type: organism-based; conditions: in vivo, other
Mus musculus [11] = assay: Toxicity in FVB mouse assessed as calcium level in blood at 12 pmol/day administered via osmotic pump for 6 to 7 days measured on day 4 by microchemistry (RVb = 2.11 mmol/L); type: organism-based; conditions: in vivo, other
Mus musculus [12] = assay: Toxicity in FVB mouse assessed as calcium level in blood at 240 pmol/day administered via osmotic pump for 6 to 7 days measured on day 3 by microchemistry (RVb = 2.24 mmol/L); type: organism-based; conditions: in vivo, other
Mus musculus [13] = assay: Toxicity in FVB mouse assessed as calcium level in blood at 1200 pmol/day administered via osmotic pump for 6 to 7 days measured on day 6 by microchemistry (RVb = 2 mmol/L); type: organism-based; conditions: in vivo, other
Vitamin D3 receptor = molecular target: T2, Vitamin D3 receptor (Homo sapiens, UniProt P11473)
T2 sequence (P11473 whole entry): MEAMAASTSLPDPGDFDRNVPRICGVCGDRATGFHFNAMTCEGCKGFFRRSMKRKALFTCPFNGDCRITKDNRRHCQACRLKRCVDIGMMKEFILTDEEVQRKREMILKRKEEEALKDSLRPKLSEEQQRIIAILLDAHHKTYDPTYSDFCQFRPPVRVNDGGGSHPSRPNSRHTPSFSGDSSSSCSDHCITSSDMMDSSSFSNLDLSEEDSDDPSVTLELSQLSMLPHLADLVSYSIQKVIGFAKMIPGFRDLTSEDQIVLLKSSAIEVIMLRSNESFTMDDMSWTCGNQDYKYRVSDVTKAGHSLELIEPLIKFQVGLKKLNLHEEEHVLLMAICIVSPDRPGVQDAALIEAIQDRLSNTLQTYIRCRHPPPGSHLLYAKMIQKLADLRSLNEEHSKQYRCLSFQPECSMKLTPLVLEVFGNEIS
Description: Binding affinity to VDR ligand binding domain by fluorescence polarization competition assay

Mus musculus [14] = assay: Toxicity in FVB mouse assessed as calcium level in blood at 240 pmol/day administered via osmotic pump for 6 to 7 days measured on day 6 by microchemistry (RVb = 2 mmol/L); type: organism-based; conditions: in vivo, other
Mus musculus [15] = assay: Toxicity in FVB mouse assessed as calcium level in blood at 1200 pmol/day administered via osmotic pump for 6 to 7 days measured on day 3 by microchemistry (RVb = 2.24 mmol/L); type: organism-based; conditions: in vivo, other
Mus musculus [16] = assay: Toxicity in FVB mouse assessed as calcium level in blood at 240 pmol/day administered via osmotic pump for 6 to 7 days measured on day 4 by microchemistry (RVb = 2.11 mmol/L); type: organism-based; conditions: in vivo, other
Mus musculus [17] = assay: Toxicity in FVB mouse assessed as calcium level in blood at 240 pmol/day administered via osmotic pump for 6 to 7 days measured on day 7 by microchemistry (RVb = […] mmol/L); type: organism-based; conditions: in vivo, other
Mus musculus [18] = assay: Toxicity in FVB mouse assessed as calcium level in blood at 1200 pmol/day administered via osmotic pump for 6 to 7 days measured on day 7 by microchemistry (RVb = […] mmol/L); type: organism-based; conditions: in vivo, other
Mus musculus [19] = assay: Toxicity in FVB mouse assessed as calcium level in blood at 1200 pmol/day administered via osmotic pump for 6 to 7 days measured on day 4 by microchemistry (RVb = 2.11 mmol/L); type: organism-based; conditions: in vivo, other

Sequence of Histone deacetylase 3 (O15379 whole entry): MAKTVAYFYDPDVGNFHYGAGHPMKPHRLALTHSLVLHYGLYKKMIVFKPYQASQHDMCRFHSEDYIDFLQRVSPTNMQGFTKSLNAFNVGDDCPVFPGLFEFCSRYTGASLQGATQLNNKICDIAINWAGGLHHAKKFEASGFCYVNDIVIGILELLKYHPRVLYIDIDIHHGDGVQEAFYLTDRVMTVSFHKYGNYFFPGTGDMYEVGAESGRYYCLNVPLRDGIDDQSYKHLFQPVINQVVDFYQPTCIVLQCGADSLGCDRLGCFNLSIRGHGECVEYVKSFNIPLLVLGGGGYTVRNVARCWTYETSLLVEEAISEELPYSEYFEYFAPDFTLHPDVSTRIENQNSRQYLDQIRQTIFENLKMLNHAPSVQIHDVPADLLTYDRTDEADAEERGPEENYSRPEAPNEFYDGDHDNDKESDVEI

IC50 (Histone deacetylase 3): 36 µM
IC50 [1]: 64 µM
IC50 (Histone deacetylase 2): 90.4 µM
Compound: CNC(=O)C(=O)CCCC[C@@H](C)[C@H]1CC[C@H]2/C(=C/C=C3C[C@@H](O)C[C@H](O)C3)CCC[C@]12C
Activity (AT84): Active

Compound: C=C1/C(=C\C=C2/CCC[C@]3(C)[C@@H]([C@H](C)CCCC(C)(C)O)CC[C@@H]23)C[C@@H](O)C[C@@H]1O [CALCITRIOL]
Activity (Mus musculus [2]): 2.62 mmol/L
Activity (Mus musculus [3]): 2.05 mmol/L
Activity (Mus musculus [4]): 2.97 mmol/L
Activity (Mus musculus [5]): 3.07 mmol/L
Activity (Mus musculus [6]): 3.21 mmol/L
Activity (Mus musculus [7]): 2.03 mmol/L
Activity (Mus musculus [8]): Toxic
Activity (Mus musculus [9]): 3.15 mmol/L
Activity (Mus musculus [10]): 4.43 mmol/L
Activity (Mus musculus [11]): 2.59 mmol/L

IC50 (Histone deacetylase 3): 718 µM
IC50 (Vitamin D3 receptor): 0.321 µM
IC50 [1]: 191 µM
Compound: C[C@H](CCCCNS(C)(=O)=O)[C@H]1CC[C@H]2/C(=C/C=C3C[C@@H](O)C[C@H](O)C3)CCC[C@]12C
Activity (Mus musculus [12]): 1.88 mmol/L
Activity (Mus musculus [13]): 1.92 mmol/L
Activity (Mus musculus [14]): 2.22 mmol/L
Activity (Mus musculus [15]): 2.01 mmol/L

IC50 (Histone deacetylase 3): 13.3 µM
IC50 (Vitamin D3 receptor): 0.087 µM
IC50 [1]: 0.58 µM
IC50 (Histone deacetylase 2): 10.4 µM
Compound: CC(/C=C/C(=O)NO)=C\[C@@H](C)[C@H]1CC[C@H]2/C(=C/C=C3\C[C@@H](O)C[C@@H](O)C3)CCC[C@]12C [TRICIFEROL]
Activity (Mus musculus [12]): 2.11 mmol/L
Activity (Mus musculus [13]): 2.08 mmol/L
Activity (Mus musculus [14]): 2.03 mmol/L
Activity (Mus musculus [15]): 1.92 mmol/L

IC50 (Histone deacetylase 3): 508 µM
IC50 (Vitamin D3 receptor): 0.015 µM
IC50 [1]: 293 µM
Compound: C[C@H](CCCCNS(=O)(=O)c1ccccc1)[C@H]1CC[C@H]2/C(=C/C=C3C[C@@H](O)C[C@H](O)C3)CCC[C@]12C
Activity (Mus musculus [16]): 2.05 mmol/L
Activity (Mus musculus [17]): 1.95 mmol/L
Activity (Mus musculus [18]): 2.07 mmol/L
Activity (Mus musculus [19]): 2.03 mmol/L

IC50 (Histone deacetylase 3): 695 µM
IC50 (Vitamin D3 receptor): 0.014 µM
IC50 [1]: 153 µM
Compound: C[C@H](CCCCNS(=O)(=O)C(F)(F)F)[C@H]1CC[C@H]2/C(=C/C=C3C[C@@H](O)C[C@H](O)C3)CCC[C@]12C

IC50 (Histone deacetylase 3): 730 µM
IC50 (Vitamin D3 receptor): 0.213 µM
IC50 [1]: 71.3 µM
Compound: C[C@H](CCCNS(C)(=O)=O)[C@H]1CC[C@H]2/C(=C/C=C3C[C@@H](O)C[C@H](O)C3)CCC[C@]12C

IC50 (Histone deacetylase 3): 470 µM
IC50 (Vitamin D3 receptor): 0.28 µM
IC50 [1]: 50.4 µM
Compound: C[C@H](CCCCNS(N)(=O)=O)[C@H]1CC[C@H]2/C(=C/C=C3C[C@@H](O)C[C@H](O)C3)CCC[C@]12C
